Data reported in patent US7365231B2, “Compound with antitumor activity and preparation method therefor” (National Taiwan University of Science & Technology, priority 2005, dated 2008).

Key:
HT-29 cells = assay: Cell cycle analysis by flow cytometry; assay type: cell-based, human
Protocol: […] […] HT-29 cells were mainly in G0/G1 phase (84.1-86.0%), and only a few percent of cells in S phase (7.4-8.0%) after exposure to 4 μM DPA for 48-72 h. […] The G0/G1 arrest was not induced in the HCT-15 cells treated with 1-8 μM DPA for 24-72 h. […] DPA exerted the dose specific effect for the induced G0/G1 arrest on Colo 205 cells. […] In addition, we noted that DPA-mediated accumulation of Colo205 and HT 29 cells in G1 phase (>80%) was similar to that of DPD (Anti-Cancer Drug 2004; 15:277-80). It is likely that the induced G1-arrest without concomitant apoptosis on Colo 205 and HT 29 colon cancer cells is one unique property of structure I.

Colo 205 cells = assay: Reversibility of DPA-induced growth inhibition after drug withdrawal; assay type: cell-based, human
Protocol: To further investigate whether the DPA-induced growth inhibition was reversible, Colo 205 cells were treated with DPA for 72 hours, and the cells were withdrawn from DPA by culturing in fresh medium for another 48 or 72 hours. […] One possibility is that the relatively lipophilic nature of DPA or DPD reduced cellular efflux after the initial drug exposure. It is inferred that the irreversible property of adamantane and diamantane derivatives provides an advantage to prolong the anticancer activity.

Nc1ccc(Oc2ccc(C3(c4ccc(Oc5ccc(N)c(O)c5)cc4)C4CC5CC(C4)CC3C5)cc2)cc1O [DPA, 2,2-bis(4-(4-amino-3-hydroxyphenoxy)phenyl)adamantane]
G0/G1 cell-cycle arrest and apoptosis (HT-29 cells; HT 29): G0/G1 cell-cycle arrest without concomitant apoptosis
accumulation of cells in G1 phase (HT-29 cells; HT 29): > 80%
cells in G0/G1 phase (HT-29 cells; HT-29, 4 μM DPA for 48-72 h): 84.1-86.0%
cells in S phase (HT-29 cells; HT-29, 4 μM DPA for 48-72 h): 7.4-8.0%
G0/G1(%) (HT-29 cells; HT-29, DPA 1 μM, 24 h): 56.6%
G2/M(%) (HT-29 cells; HT-29, DPA 1 μM, 24 h): 10.3%
S(%) (HT-29 cells; HT-29, DPA 1 μM, 24 h): 33.1%
G0/G1(%) (HT-29 cells; HT-29, DPA 1 μM, 48 h): 61.6%
G2/M(%) (HT-29 cells; HT-29, DPA 1 μM, 48 h): 9.4%
S(%) (HT-29 cells; HT-29, DPA 1 μM, 48 h): 29.0%
G0/G1(%) (HT-29 cells; HT-29, DPA 1 μM, 72 h): 72.6%
G2/M(%) (HT-29 cells; HT-29, DPA 1 μM, 72 h): 7.3%
S(%) (HT-29 cells; HT-29, DPA 1 μM, 72 h): 20.1%
G0/G1(%) (HT-29 cells; HT-29, DPA 2 μM, 24 h): 67.0%
G2/M(%) (HT-29 cells; HT-29, DPA 2 μM, 24 h): 10.0%
S(%) (HT-29 cells; HT-29, DPA 2 μM, 24 h): 23.1%
G0/G1(%) (HT-29 cells; HT-29, DPA 2 μM, 48 h): 77.5%
G2/M(%) (HT-29 cells; HT-29, DPA 2 μM, 48 h): 4.7%
S(%) (HT-29 cells; HT-29, DPA 2 μM, 48 h): 17.8%
G0/G1(%) (HT-29 cells; HT-29, DPA 2 μM, 72 h): 67.3%
G2/M(%) (HT-29 cells; HT-29, DPA 2 μM, 72 h): 2.9%
S(%) (HT-29 cells; HT-29, DPA 2 μM, 72 h): 29.9%
G0/G1(%) (HT-29 cells; HT-29, DPA 4 μM, 24 h): 72.1%
G2/M(%) (HT-29 cells; HT-29, DPA 4 μM, 24 h): 10.9%
S(%) (HT-29 cells; HT-29, DPA 4 μM, 24 h): 17.1%
G0/G1(%) (HT-29 cells; HT-29, DPA 4 μM, 48 h): 84.1%
G2/M(%) (HT-29 cells; HT-29, DPA 4 μM, 48 h): 8.5%
S(%) (HT-29 cells; HT-29, DPA 4 μM, 48 h): 7.4%
G0/G1(%) (HT-29 cells; HT-29, DPA 4 μM, 72 h): 86.0%
G2/M(%) (HT-29 cells; HT-29, DPA 4 μM, 72 h): 6.1%
S(%) (HT-29 cells; HT-29, DPA 4 μM, 72 h): 8.0%
G0/G1(%) (HT-29 cells; HT-29, DPA 8 μM, 24 h): 77.0%
G2/M(%) (HT-29 cells; HT-29, DPA 8 μM, 24 h): 9.6%
S(%) (HT-29 cells; HT-29, DPA 8 μM, 24 h): 13.3%
G0/G1(%) (HT-29 cells; HT-29, DPA 8 μM, 48 h): 79.5%
G2/M(%) (HT-29 cells; HT-29, DPA 8 μM, 48 h): 10.0%
S(%) (HT-29 cells; HT-29, DPA 8 μM, 48 h): 10.6%
G0/G1(%) (HT-29 cells; HT-29, DPA 8 μM, 72 h): 86.3%
G2/M(%) (HT-29 cells; HT-29, DPA 8 μM, 72 h): 6.2%
S(%) (HT-29 cells; HT-29, DPA 8 μM, 72 h): 7.5%
proliferation activity after removal of DPA (Colo 205 cells; 1 μM DPA 72 h, then 48-72 hours in fresh medium): reversed and returned to control level
reversal of growth inhibition after removal of DPA (Colo 205 cells; 2, 4 or 8 μM DPA 72 h, then 48-72 hours in fresh medium): no reversal effect
cell viability (Colo 205 cells; haemocytometer, treated cells except 8 μM DPA): > 90%
